According to patent publication US8178133B2, “Magnesium compositions and uses thereof” (Magceutics, Inc., priority 2007, dated 2012):

Columns and labels:
aging rats = assay: Novel object recognition test in rats; assay type: in vivo, Sprague-Dawley rats
[1] = system: young and aging/aged rats; assay: Elevated T-maze test, spatial working memory; assay type: in vivo, Sprague Dawley (SD) rats; conditions: MgCl2 diet
Description: Twenty 2-month old, male Sprague Dawley (SD) rats were housed in a temperature-controlled room (22° C. to 25° C.) with a dark period from 08:00 pm to 08:00 am daily. […] Over 7 days before the training and trial period began, each rat was handled and habituated to the maze and to Kellogg's Froot Loop cereal.
Each rat underwent a test of one trial, followed by an interval of 10-minutes, followed by another trial, and so on, for a total of 6 trials in one day. In each trial, each rat went through a sample run in the maze, followed by an interval of 15 seconds, followed by a choice run in the maze. In the sample run, the subject rat was forced to go to the left or to the right by the presence of a block, according to a pseudorandom sequence (with an equal number of left turns and right turns, and no more than two consecutive turns in the same direction). As a reward, Froot Loop cereal was available in the food well at the end of the run, regardless of the direction that was taken by virtue of the block. In the choice run, the block that had been present in the preceding sample run was removed, and the rat was allowed to choose to go to the left or to the right. […]
Three groups of animals (young, aging, and magnesium-treated aging rats) were used. […] Spatial working memory was assessed using a T-maze non-matching-to-place task. […] Spatial working memory was first assessed on an elevated T-maze. […]

[2] = system: mice genetically altered to present symptoms of Alzheimer's disease (AD); assay: Modified Morris water maze test in AD mice; assay type: in vivo; conditions: AD mice aged 13 months
Description: Another group, the control group, of 10 mice that were genetically altered to present symptoms of AD were fed a Control Diet, a diet of normal solid food and water, for 30 days.
The pool used was a pool of water in a circular metal tank (150 cm in diameter and 50 cm in depth) having a water height of 30 cm and a water temperature that was maintained at ˜22° C. The pool was placed in a moderately lit area and surrounded by a black curtain. An acrylic platform (15 cm in diameter) was placed 2 cm below the surface of the water in the middle of one quadrant of the pool, equidistant from the center and the edge of the pool. Outside the pool, a cue was placed so as to be visible to a mouse in the maze, allowing a mouse to use it as a landmark for spatial orientation. The cue remained unchanged throughout the test period.
On the first day of the training and testing period, the water in the pool was transparent, such that the platform was visible. Each mouse was trained to swim towards the platform and to stand on the platform so as not to be submerged in the pool. […] The amount of time the mouse took to find the platform, referred to as “escape latency,” was recorded for each trial.
On the second day of the training and testing period, a small quantity of milk was added to the water in the pool, such that the pool was opaque and the platform was no longer visible. […]

[3] = system: young (9-month old) and aged (25-month old) rats; conditions: food containing 2% magnesium oxide for 8 days; cited from earlier work

[Cl-].[Cl-].[Mg+2] [MgCl2]
novel object exploration preference (aging rats; aging rats 12-14 months, 6 mg/kg MgCl2 from 8 months of age, single training, 10 minute retention interval): preferentially explored the novel object to the same extent as young rats | novel object exploration preference (aging rats; aging rats, single training, 24 hours retention interval): lose there ability to distinguish novel versus familiar objects | novel object exploration preference (aging rats; aging rats, two training sessions (spaced training), 24-hour retention interval): retained a high level of preference | spatial working memory, choice accuracy with increased delay ([1]; 2 and 5 min delays): significantly enhanced the performance of the aging rats | percentage of correct choices, learning of non-matching-to-place task ([1]; 15 sec delay): performed significantly better from their first trials

COc1cc2c(cc1OC)C(=O)C(CC1CCN(Cc3ccccc3)CC1)C2 (centres unmarked) [aricept]
effect on learning capacity, comparison with anti-AD drugs [2]: both being better at reducing the effects of AD on learning capacity than aricept

[O]=[Mg] [magnesium oxide]
cognitive function [3]: some sign of improvement of cognitive function

CC12CC3CC(C)(C1)CC(N)(C3)C2 [memantine]
effect on learning capacity, comparison with anti-AD drugs [2]: better at reducing the effects of AD on learning capacity than aricept
